Where “and” joins values, the source holds several entries; their conditions need not be identical. Equal entries are not always repeated.

The test system of the experiment is 454973-116-R2-J3-PDC spheroids, percent test/control viability. Nature of the experiment: Anticancer human tumor 454973-116-R2-J3-PDC patient-derived pancreatic carcinoma cell line growth inhibition [CLK]. Particulars: spheroids with HUVEC and MSC; for viability, T/C: stronger effect = lower value; for IC50: curve of compound. From the text: A high-throughput screen of multi-cell type tumor spheroids was designed to identify active combinations of […] and targeted small molecules. Complex spheroids include a stromal component modeled by human endothelial cells (HUVEC) and fibroblasts modeled by human mesenchymal stem cells (MSCs). The concentration ranges selected for each drug and investigational agent were based upon clinically achievable concentrations if the clinical Cmax of the agent was known.
Compounds. The drugs and investigational agents: cirtuvivint (SM08502; NSC835563), CC-671 (NSC850746), vemurafenib (NSC761431), tapotoclax (NSC804041), sotorasib (NSC818433), adagrasib (NSC831453), MRTX-1133 (NSC836407), BAY2416964 (NSC825713), copanlisib (NSC816437), inavolisib (NSC800729), abemaciclib (NSC768073), osimertinib (NSC779217), entinostat (NSC756642), eltanexor (KPT-8602, NSC794443), venetoclax (NSC766270), ceralasertib (NSC777638), bortezomib (NSC756655), olaparib (NSC753686), talazoparib (NSC767125), alisertib (NSC759677), peposertib (NSC802822), gemcitabine (NSC613327), 5-fluorouracil (NSC19893), SN-38 (NSC673596), oxaliplatin (NSC266046), paclitaxel (NSC125973), and doxorubicin (NSC123127), were obtained from the National Cancer Institute (NCI) Developmental Therapeutics Program Chemical Repository. The FDA-approved anticancer drug set is available from the Developmental Therapeutics Program at https://dtp.cancer.gov/organization/dscb/obtaining/available plates.htm. […] The stock solutions were prepared in dimethyl sulfoxide (DMSO, Sigma-Aldrich, St. Louis, MO, cat. D2650), except for the platinum complexes which were prepared in saline (Quality Biological, Gaithersburg, MD, cat. 114-055-101), at 800-fold the tested concentration and stored at -70 degrees C prior to their use. All drugs and investigational agents were tested over a range starting from a high concentration at or near the clinical Cmax and decreasing in half-log increments. If the clinical Cmax for an agent had not been determined, the highest concentration tested was 10 microM.
Cell Culture. All cells were maintained in an incubator at 37 degrees C and 5% CO2 with 95% humidity. The PDC lines were cultured according to standard operating procedures established by the NCI PDMR. Briefly, all PDCs were thawed and cultured in Matrigel-coated flasks prepared with a working solution of 1X Ham's F-12 nutrient mix, without supplementation (Invitrogen, Waltham, MA, cat. 11765054), 100 U/mL penicillin-streptomycin (Invitrogen, cat. 15140122), and 2.5% Matrigel (Corning Inc., Corning, NY, cat. 354248) for the first three passages. The 947758-054-R-J2-PDC line was cultured in 6B/Colon 1A media, which includes advanced DMEM/F-12 (Thermo Fisher Scientific, cat. 12634028), 10 mM HEPES (Thermo Fisher Scientific, cat. 15630080), 1X GlutaMAX supplement (Thermo Fisher Scientific, cat. 35050061), 0.1 mg/mL primocin (InvivoGen, cat. ant-pm-2), 10% defined fetal bovine serum, heat inactivated (HyClone Laboratories Inc., cat. SH30070.03HI), 1.25 mM N-Acetyl-L-cysteine (Sigma-Aldrich, cat. A9165), 10 mM nicotinamide (Sigma-Aldrich, cat. N0636), 1X B-27 supplement (Thermo Fisher Scientific, cat. 17504044), 1X N-2 supplement (Thermo Fisher Scientific, cat. 17502048), and 10 microM Y-27632 dihydrochloride (Tocris Bioscience, cat. 1254). The 876862-298-R-J1-PDC was cultured in 6E media, which includes all 6B/Colon 1A media components plus 50% L-WRN conditioned media (ATCC, cat. CRL-3276), 50 ng/mL recombinant human EGF recombinant protein (hEGF; Thermo Fisher Scientific, cat. PHG0311), 10 ng/mL recombinant human fibroblast growth factor 10 (hGFG-10; PeproTech, cat. 100-26), 1 ng/mL recombinant human fibroblast growth factor 2 (hFGF-2; PeproTech, cat. 100-18B), and 1 µM prostaglandin E2 (PGE2; Tocris, cat. 2296). The 227483-062-R1-J1-PDC line was cultured in Panc media, containing all 6E components except hFGF-2, with the addition of 500 nM SB-431542 (Selleckchem, cat. S1067) and 10 nM gastrin (Tocris, cat. 3006). […]
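Further: spheroids exposed to compounds for 7 days before readout.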

Consider `CC(=O)O[C@H]1C(=O)[C@@]2(C)[C@H]([C@H](OC(=O)c3ccccc3)[C@]3(O)C[C@H](OC(=O)[C@H](O)[C@@H](NC(=O)c4ccccc4)c4ccccc4)C(C)=C1C3(C)C)[C@]1(OC(C)=O)CO[C@@H]1C[C@@H]2O`, for which the IC50 is below 0.0316 µM. In addition, the viability, T/C (compound 0.0316 µM) was 5.98% and 7.51%. The viability, T/C (compound 0.1 µM) is 6.42% and 5.84%. For the same molecule, the viability, T/C (compound 0.316 µM) was 4.95% and 6.85%. The viability, T/C (compound 1 µM) was 5.57% and 6.35%. For the same molecule, the viability, T/C (compound 3.16 µM) is 7.38% and 11.4%. Further, the viability, T/C (compound 10 µM) was 16% and 15.4%.
Take `CC(Nc1ccc2c(c1)OCCn1cc(N3C(=O)OCC3C(F)F)nc1-2)C(N)=O` (stereo not given): the 50% inhibitory concentration (IC50) is > 10 µM and 8.31 µM. In addition, the viability, T/C (compound 0.0316 µM) was 98.3% and 101%. Besides, the viability, T/C (compound 0.1 µM) is 95.5% and 92.3%. Also, for the setting “compound 0.316 µM”, the viability, T/C is 99.5% and 84%. Also, for the setting “compound 1 µM”, the viability, T/C was 84.7% and 86.1%. Besides, the viability, T/C (compound 3.16 µM) was 78.1% and 71%. The viability, T/C (compound 10 µM) was 54.1% and 45%.
On to `CC1(C)CCC(CN2CCN(c3ccc(C(=O)NS(=O)(=O)c4ccc(NCC5CCOCC5)c([N+](=O)[O-])c4)c(Oc4cnc5[nH]ccc5c4)c3)CC2)=C(c2ccc(Cl)cc2)C1`, for which the IC50 is 7.15 µM and 6.67 µM. The viability, T/C (compound 0.0316 µM) is 101% and 99.6%. Moreover, under “compound 0.1 µM”, the viability, T/C was 102% and 95.9%. Moreover, for the setting “compound 0.316 µM”, the viability, T/C was 113% and 106%. Further, the viability, T/C (compound 1 µM) was 106% and 102%. Besides, the viability, T/C (compound 3.16 µM) is 119% and 111%. Besides, the viability, T/C (compound 10 µM) was 25.8% and 21.3%.
As to `CC1COCCN1c1cc(C2(S(C)(=N)=O)CC2)nc(-c2ccnc3[nH]ccc23)n1` (stereo not given), the IC50 was 7.77 µM and 7.34 µM. Also, the viability, T/C (compound 0.0316 µM) was 109% and 101%. Further, the viability, T/C (compound 0.1 µM) is 109% and 97.7%. Besides, the viability, T/C (compound 0.316 µM) was 104% and 102%. Besides, where the note is “compound 1 µM”, the viability, T/C is 101% and 98%. The viability, T/C (compound 3.16 µM) was 91.1% and 87.8%. Further, for the setting “compound 10 µM”, the viability, T/C was 38.4% and 36.1%.
In the case of `COc1ccc([C@@H](O)c2cc(-c3ncnc4cc(N5CCOCC5)ccc34)c(F)cc2Cl)nn1`, the IC50 is above 10 µM. Moreover, the viability, T/C (compound 0.0316 µM) was 105% and 114%. The viability, T/C (compound 0.1 µM) was 108% and 102%. Besides, the viability, T/C (compound 0.316 µM) is 95.4% and 102%. For the same molecule, the viability, T/C (compound 1 µM) was 92% and 89.2%. The viability, T/C (compound 3.16 µM) is 82.7% and 77.8%. Further, the viability, T/C (compound 10 µM) is 54.3% and 51%.
Consider `COc1cccc2c1C(=O)c1c(O)c3c(c(O)c1C2=O)CC(O)(C(=O)CO)CC3OC1CC(N)C(O)C(C)O1` (stereo not given), for which the IC50 was 0.0423 µM and < 0.0316 µM. Moreover, under “compound 0.0316 µM”, the viability, T/C is 58.7% and 49.7%. In addition, the viability, T/C (compound 0.1 µM) was 23% and 19.8%. Besides, the viability, T/C (compound 0.316 µM) is 21.2% and 19.8%. The viability, T/C (compound 1 µM) is 6.76% and 3.88%. The viability, T/C (compound 3.16 µM) is 0.39% and 1.8%. Also, the viability, T/C (compound 10 µM) was 2.07% and 3.53%.
Consider `Nc1ccccc1NC(=O)c1ccc(CNC(=O)OCc2cccnc2)cc1`, for which the concentration for half-maximal inhibition (IC50) was 1.8 µM and 1.68 µM. Under “compound 0.0316 µM”, the viability, T/C is 103% and 100%. Further, the viability, T/C (compound 0.1 µM) was 96.6% and 102%. The viability, T/C (compound 0.316 µM) was 90.7% and 89.4%. Moreover, the viability, T/C (compound 1 µM) is 71.8% and 70.5%. The viability, T/C (compound 3.16 µM) is 29.7% and 26.2%. The viability, T/C (compound 10 µM) was 9.11% and 5.25%.
Regarding `Nc1ccn(C2OC(CO)C(O)C2(F)F)c(=O)n1` (stereo not given), the IC50 was below 0.0316 µM. Moreover, where the note is “compound 0.0316 µM”, the viability, T/C was 11% and 7.61%. Also, the viability, T/C (compound 0.1 µM) was 8.58% and 9.53%. For the same molecule, the viability, T/C (compound 0.316 µM) is 8.12% and 7.99%. In addition, the viability, T/C (compound 1 µM) is 10.4% and 8.26%. Where the note is “compound 3.16 µM”, the viability, T/C is 9.96% and 7.45%. The viability, T/C (compound 10 µM) is 9.46% and 9.19%.
For the molecule `O=C(c1cc(Cc2n[nH]c(=O)c3ccccc23)ccc1F)N1CCN(C(=O)C2CC2)CC1`, the IC50 was above 10 µM. In addition, the viability, T/C (compound 0.0316 µM) is 115% and 104%. The viability, T/C (compound 0.1 µM) was 95.9% and 101%. Moreover, where the note is “compound 0.316 µM”, the viability, T/C was 99.6% and 101%. In addition, the viability, T/C (compound 1 µM) was 101% and 99.2%. The viability, T/C (compound 3.16 µM) is 94.5% and 98.7%. The viability, T/C (compound 10 µM) was 71.1% and 77.5%.
Consider `O=c1[nH]cc(F)c(=O)[nH]1`, for which the IC50 was 1.7 µM and 0.881 µM. Further, the viability, T/C (compound 0.0316 µM) was 115% and 108%. For the same molecule, the viability, T/C (compound 0.1 µM) is 98.1% and 101%. For the setting “compound 0.316 µM”, the viability, T/C is 95.8% and 103%. The viability, T/C (compound 1 µM) was 64.2% and 43.4%. For the same molecule, the viability, T/C (compound 3.16 µM) is 30.3% and 31.5%. Also, the viability, T/C (compound 10 µM) is 35.5% and 36.6%.

For orientation: viability, T/C means the ratio of treated to control. The term IC50 denotes the concentration that inhibits the measured activity by half.

The record behind these values is PubChem BioAssay AID2060618 (Molecular Pharmacology Branch, DTP, NCI, 2025).
